Assay results from patent US9249129B2, “Morpholino substituted urea derivatives as mTOR inhibitors” (CELLZOME LIMITED, priority 2010, dated 2016).

Legend:
Assay in all cases: kinobeads assay with mass spectrometry detection of kinases (kinase selectivity profile)
Format in all cases: binding
kinases (kinome) [1] = molecular target: T1, kinases (kinome) (Homo sapiens, UniProt Q9Y572); conditions: RIPK3 (TKL), IPI00847572
T1 construct: determined in kinobeads assays with mass spectrometry detection of kinases as described previously; endogenous in cells; host or cells: cell lysate
From the text: (§1) The protein kinase complement of the human genome (the kinome) was described previously (Manning et al., 2002. Science 298(5600):1912-1934). Sequence accession numbers are defined by the International Protein Index (IPI) (Kersey et al., 2004. Proteomics 4(7):1985-1988).

kinases (kinome) [2] = molecular target: T2, kinases (kinome) (Homo sapiens, UniProt Q96GD4); conditions: AurB (Other), IPI00796914
T2 construct: determined in kinobeads assays with mass spectrometry detection of kinases as described previously; endogenous in cells; host or cells: cell lysate
From the text: as §1

kinases (kinome) [3] = molecular target: T3, kinases (kinome) (Homo sapiens, UniProt Q9UBE8); conditions: NLK (CMGC), IPI00008237
T3 construct: determined in kinobeads assays with mass spectrometry detection of kinases as described previously; endogenous in cells; host or cells: cell lysate
T3 sequence (Q9UBE8 1-527): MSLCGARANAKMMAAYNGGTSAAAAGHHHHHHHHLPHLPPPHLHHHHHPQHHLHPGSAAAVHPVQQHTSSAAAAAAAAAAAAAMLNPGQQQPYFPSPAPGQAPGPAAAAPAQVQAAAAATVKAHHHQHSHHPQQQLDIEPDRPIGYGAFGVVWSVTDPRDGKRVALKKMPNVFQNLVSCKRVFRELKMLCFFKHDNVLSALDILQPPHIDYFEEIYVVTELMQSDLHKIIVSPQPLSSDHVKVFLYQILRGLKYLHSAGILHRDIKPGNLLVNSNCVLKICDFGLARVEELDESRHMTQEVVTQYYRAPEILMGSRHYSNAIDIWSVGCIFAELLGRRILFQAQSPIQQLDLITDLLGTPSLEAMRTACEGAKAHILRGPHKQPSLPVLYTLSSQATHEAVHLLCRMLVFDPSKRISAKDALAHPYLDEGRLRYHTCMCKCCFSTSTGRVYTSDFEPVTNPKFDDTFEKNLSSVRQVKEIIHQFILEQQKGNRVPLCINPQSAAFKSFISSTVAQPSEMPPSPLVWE
From the text: as §1

kinases (kinome) [4] = molecular target: T4, kinases (kinome) (Homo sapiens, UniProt P24941); conditions: CDK2 (CMGC), IPI00031681
T4 construct: determined in kinobeads assays with mass spectrometry detection of kinases as described previously; endogenous in cells; host or cells: cell lysate
From the text: as §1

kinases (kinome) [5] = molecular target: T5, kinases (kinome) (Homo sapiens, UniProt Q14289); conditions: PYK2 (TK), IPI00029702
T5 construct: determined in kinobeads assays with mass spectrometry detection of kinases as described previously; endogenous in cells; host or cells: cell lysate
From the text: as §1

kinases (kinome) [6] = molecular target: T6, kinases (kinome) (Homo sapiens, UniProt P43405); conditions: SYK (TK), IPI00018597
T6 construct: determined in kinobeads assays with mass spectrometry detection of kinases as described previously; endogenous in cells; host or cells: cell lysate
From the text: as §1

kinases (kinome) [7] = molecular target: T7, kinases (kinome) (Homo sapiens, UniProt P29597); conditions: TYK2 (TK), IPI00022353
T7 construct: determined in kinobeads assays with mass spectrometry detection of kinases as described previously; endogenous in cells; host or cells: cell lysate
From the text: as §1

kinases (kinome) [8] = molecular target: T8, kinases (kinome) (Homo sapiens, UniProt Q96RR4); conditions: CaMKK2 (Other), IPI00290239
T8 construct: determined in kinobeads assays with mass spectrometry detection of kinases as described previously; endogenous in cells; host or cells: cell lysate
From the text: as §1

kinases (kinome) [9] = molecular target: T9, kinases (kinome) (Homo sapiens, UniProt P42356); conditions: PIK4Ca (Lipid Kinase), IPI00070943
T9 construct: determined in kinobeads assays with mass spectrometry detection of kinases as described previously; endogenous in cells; host or cells: cell lysate
From the text: as §1

kinases (kinome) [10] = molecular target: T10, kinases (kinome) (Homo sapiens, UniProt Q9H0K1); conditions: QIK (CAMK), IPI00465291
T10 construct: determined in kinobeads assays with mass spectrometry detection of kinases as described previously; endogenous in cells; host or cells: cell lysate
From the text: as §1

kinases (kinome) [11] = molecular target: T11, kinases (kinome) (Homo sapiens, UniProt O15530); conditions: PDK1 (AGC), IPI00002538
T11 construct: determined in kinobeads assays with mass spectrometry detection of kinases as described previously; endogenous in cells; host or cells: cell lysate
T11 sequence (O15530 1-556): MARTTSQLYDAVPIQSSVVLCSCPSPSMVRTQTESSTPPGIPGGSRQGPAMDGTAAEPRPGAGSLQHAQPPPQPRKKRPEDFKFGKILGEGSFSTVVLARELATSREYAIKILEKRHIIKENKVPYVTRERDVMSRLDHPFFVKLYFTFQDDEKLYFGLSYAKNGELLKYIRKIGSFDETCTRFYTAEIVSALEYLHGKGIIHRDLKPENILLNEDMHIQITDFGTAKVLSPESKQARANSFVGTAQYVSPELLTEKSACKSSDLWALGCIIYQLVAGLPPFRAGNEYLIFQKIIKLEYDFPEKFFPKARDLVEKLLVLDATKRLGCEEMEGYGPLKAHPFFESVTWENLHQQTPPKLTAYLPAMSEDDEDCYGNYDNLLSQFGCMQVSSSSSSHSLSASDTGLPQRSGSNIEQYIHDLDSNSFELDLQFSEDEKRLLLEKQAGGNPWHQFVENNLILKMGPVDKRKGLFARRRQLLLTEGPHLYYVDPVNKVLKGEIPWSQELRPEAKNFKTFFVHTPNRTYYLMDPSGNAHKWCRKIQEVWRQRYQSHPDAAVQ
From the text: as §1

kinases (kinome) [12] = molecular target: T12, kinases (kinome) (Homo sapiens, UniProt P68400); conditions: CK2a1 (Other), IPI00016613
T12 construct: determined in kinobeads assays with mass spectrometry detection of kinases as described previously; endogenous in cells; host or cells: cell lysate
From the text: as §1

kinases (kinome) [13] = molecular target: T13, kinases (kinome) (Homo sapiens, UniProt Q08881); conditions: ITK (TK), IPI00004566
T13 construct: determined in kinobeads assays with mass spectrometry detection of kinases as described previously; endogenous in cells; host or cells: cell lysate
T13 sequence (Q08881 1-620): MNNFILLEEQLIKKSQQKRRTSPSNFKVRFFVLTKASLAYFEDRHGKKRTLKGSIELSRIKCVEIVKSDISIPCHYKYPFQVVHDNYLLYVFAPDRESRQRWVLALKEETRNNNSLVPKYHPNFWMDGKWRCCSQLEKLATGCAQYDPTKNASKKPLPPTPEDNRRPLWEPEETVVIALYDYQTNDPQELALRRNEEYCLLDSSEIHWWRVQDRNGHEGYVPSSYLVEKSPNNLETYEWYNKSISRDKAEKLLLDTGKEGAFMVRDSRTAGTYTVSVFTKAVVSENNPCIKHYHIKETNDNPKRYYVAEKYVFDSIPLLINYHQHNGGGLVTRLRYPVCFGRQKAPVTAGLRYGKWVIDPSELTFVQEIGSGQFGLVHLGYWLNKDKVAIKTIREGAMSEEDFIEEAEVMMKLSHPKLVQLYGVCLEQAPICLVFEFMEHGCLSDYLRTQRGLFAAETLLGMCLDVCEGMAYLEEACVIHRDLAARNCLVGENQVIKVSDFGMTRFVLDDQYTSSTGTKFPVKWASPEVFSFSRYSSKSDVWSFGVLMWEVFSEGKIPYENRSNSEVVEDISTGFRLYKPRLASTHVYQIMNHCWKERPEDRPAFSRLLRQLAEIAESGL
From the text: as §1

kinases (kinome) [14] = molecular target: T14, kinases (kinome) (Homo sapiens, UniProt P16591); conditions: FER (TK), IPI00029263
T14 construct: determined in kinobeads assays with mass spectrometry detection of kinases as described previously; endogenous in cells; host or cells: cell lysate
From the text: as §1

kinases (kinome) [15] = molecular target: T15, kinases (kinome) (Homo sapiens, UniProt Q06187); conditions: BTK (TK), IPI00029132
T15 construct: determined in kinobeads assays with mass spectrometry detection of kinases as described previously; endogenous in cells; host or cells: cell lysate
From the text: as §1

Measured: IC50

T7 sequence (P29597 whole entry): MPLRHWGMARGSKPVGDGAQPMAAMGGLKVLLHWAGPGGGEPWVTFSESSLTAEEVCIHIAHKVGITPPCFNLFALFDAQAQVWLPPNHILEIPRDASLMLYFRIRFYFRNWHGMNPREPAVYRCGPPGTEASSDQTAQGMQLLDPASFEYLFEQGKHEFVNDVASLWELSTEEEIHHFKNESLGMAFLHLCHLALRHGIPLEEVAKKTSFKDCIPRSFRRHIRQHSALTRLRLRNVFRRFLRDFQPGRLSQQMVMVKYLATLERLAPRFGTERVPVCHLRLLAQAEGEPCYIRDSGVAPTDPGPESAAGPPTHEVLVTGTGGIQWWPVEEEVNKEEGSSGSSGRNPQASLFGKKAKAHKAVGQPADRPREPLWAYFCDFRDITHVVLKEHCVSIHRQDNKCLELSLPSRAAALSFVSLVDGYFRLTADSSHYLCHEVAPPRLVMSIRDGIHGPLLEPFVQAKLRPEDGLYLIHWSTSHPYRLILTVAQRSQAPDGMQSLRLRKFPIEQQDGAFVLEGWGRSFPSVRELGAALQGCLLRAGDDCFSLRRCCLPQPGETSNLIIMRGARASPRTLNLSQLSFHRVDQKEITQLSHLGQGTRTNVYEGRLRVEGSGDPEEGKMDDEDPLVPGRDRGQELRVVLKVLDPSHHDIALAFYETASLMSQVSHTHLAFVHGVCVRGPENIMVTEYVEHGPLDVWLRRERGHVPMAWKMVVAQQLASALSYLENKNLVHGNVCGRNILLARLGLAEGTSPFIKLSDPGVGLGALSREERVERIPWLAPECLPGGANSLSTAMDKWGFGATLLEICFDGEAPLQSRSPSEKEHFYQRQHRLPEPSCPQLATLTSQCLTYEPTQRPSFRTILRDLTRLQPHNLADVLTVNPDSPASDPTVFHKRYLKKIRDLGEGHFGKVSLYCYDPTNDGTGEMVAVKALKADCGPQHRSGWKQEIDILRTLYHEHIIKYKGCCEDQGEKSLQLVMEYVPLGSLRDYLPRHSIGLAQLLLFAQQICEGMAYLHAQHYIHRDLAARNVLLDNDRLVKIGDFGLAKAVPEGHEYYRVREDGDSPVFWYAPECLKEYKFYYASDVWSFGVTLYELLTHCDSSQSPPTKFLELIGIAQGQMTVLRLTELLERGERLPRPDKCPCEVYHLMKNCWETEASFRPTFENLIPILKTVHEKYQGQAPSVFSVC
T12 sequence (P68400 whole entry): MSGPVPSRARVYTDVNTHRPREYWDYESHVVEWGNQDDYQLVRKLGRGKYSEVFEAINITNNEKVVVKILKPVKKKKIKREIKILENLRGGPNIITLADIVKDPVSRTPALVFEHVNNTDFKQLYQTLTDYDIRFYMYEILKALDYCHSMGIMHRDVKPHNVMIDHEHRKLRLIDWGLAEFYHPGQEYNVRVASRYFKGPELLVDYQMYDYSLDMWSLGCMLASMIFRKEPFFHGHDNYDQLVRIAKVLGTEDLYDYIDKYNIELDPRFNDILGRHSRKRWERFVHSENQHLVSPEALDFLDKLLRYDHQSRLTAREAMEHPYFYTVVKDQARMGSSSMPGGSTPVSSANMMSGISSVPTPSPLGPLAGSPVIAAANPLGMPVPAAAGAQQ
T10 sequence (Q9H0K1 whole entry): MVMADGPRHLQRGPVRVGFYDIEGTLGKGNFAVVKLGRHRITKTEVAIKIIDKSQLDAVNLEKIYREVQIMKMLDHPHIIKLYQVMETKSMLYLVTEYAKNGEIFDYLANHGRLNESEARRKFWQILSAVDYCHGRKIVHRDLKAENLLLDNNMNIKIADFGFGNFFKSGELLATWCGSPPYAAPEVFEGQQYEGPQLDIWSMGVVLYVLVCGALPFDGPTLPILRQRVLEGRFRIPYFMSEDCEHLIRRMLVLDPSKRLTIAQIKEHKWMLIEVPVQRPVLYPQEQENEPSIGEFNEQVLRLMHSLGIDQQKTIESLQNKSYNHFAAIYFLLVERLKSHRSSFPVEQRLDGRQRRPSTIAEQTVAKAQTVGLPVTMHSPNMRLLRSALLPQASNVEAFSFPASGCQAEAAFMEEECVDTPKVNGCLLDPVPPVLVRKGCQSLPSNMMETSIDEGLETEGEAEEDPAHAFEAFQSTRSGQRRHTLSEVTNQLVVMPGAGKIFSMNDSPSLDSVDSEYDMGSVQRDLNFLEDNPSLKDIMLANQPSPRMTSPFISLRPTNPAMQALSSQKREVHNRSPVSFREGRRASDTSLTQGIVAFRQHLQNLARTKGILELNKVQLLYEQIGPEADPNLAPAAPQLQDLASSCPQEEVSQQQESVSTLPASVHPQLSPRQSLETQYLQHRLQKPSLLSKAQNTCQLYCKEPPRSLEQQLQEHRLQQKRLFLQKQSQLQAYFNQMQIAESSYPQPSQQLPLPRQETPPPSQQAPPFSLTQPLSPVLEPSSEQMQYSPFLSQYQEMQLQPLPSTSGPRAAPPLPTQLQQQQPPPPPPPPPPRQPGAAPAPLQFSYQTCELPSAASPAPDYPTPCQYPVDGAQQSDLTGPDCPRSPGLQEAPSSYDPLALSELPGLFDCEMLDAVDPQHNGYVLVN
T2 sequence (Q96GD4 whole entry): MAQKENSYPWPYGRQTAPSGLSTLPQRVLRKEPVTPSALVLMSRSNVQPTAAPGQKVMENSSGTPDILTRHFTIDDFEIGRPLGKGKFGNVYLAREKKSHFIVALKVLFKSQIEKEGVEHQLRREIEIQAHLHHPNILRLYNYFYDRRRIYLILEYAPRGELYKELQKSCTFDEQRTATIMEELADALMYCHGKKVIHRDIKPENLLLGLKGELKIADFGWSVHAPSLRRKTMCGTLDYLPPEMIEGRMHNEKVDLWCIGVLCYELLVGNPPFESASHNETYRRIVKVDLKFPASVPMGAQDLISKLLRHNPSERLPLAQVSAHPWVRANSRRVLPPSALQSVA
T9 sequence (P42356 whole entry): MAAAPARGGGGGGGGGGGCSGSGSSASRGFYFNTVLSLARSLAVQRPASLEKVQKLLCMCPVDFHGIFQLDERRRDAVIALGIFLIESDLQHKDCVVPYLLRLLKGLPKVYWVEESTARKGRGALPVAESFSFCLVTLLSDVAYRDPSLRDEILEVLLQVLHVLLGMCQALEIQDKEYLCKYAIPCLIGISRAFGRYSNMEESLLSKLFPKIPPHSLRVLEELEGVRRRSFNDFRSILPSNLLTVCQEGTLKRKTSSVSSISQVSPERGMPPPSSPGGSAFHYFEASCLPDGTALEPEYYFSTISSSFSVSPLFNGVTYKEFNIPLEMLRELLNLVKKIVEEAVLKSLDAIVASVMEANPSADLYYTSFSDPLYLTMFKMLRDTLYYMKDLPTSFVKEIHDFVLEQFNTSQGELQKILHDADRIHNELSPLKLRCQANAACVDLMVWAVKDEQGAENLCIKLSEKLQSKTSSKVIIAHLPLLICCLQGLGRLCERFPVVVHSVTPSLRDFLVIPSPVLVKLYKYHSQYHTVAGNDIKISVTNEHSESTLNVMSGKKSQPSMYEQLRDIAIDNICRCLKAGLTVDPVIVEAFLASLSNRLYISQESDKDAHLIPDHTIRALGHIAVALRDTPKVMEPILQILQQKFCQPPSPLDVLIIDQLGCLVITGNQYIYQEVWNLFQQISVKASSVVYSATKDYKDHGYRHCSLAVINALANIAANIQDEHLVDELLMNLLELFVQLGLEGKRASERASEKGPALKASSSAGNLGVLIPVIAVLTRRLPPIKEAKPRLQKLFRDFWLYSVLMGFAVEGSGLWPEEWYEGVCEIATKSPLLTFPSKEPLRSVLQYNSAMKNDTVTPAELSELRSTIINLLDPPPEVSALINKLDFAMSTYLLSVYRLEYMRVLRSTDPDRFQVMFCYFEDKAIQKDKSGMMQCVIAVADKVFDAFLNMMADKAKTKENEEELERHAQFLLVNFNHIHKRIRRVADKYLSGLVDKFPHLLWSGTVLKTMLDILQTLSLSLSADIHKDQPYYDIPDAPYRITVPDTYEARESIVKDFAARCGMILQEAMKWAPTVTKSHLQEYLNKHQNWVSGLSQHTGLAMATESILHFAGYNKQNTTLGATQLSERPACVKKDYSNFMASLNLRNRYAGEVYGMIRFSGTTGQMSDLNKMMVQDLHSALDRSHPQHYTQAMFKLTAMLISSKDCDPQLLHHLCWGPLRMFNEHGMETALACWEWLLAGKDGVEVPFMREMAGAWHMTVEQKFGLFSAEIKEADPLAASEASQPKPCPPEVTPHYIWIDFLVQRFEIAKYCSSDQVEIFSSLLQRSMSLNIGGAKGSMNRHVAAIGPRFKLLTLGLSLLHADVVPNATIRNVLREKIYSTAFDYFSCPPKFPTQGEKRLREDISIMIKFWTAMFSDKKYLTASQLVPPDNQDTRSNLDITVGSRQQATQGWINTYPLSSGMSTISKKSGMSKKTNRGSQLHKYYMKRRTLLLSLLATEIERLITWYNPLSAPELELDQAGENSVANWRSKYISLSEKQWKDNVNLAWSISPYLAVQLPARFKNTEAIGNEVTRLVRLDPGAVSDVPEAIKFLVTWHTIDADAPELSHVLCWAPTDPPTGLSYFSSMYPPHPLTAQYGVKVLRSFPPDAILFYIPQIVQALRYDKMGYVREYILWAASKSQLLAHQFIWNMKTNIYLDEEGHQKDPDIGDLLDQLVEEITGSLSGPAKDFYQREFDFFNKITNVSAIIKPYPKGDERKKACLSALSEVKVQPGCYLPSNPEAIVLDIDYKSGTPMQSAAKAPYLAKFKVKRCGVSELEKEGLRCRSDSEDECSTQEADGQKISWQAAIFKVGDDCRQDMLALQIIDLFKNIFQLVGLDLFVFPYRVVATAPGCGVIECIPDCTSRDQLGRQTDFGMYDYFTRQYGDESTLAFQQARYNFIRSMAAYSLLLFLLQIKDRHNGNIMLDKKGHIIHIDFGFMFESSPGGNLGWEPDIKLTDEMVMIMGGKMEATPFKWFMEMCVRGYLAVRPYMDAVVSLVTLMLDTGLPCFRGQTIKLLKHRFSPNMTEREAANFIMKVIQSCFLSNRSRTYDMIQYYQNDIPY

C[C@H]1COCCN1c1nc(-c2ccc(NC(=O)N[C@H]3CCC[C@@H]3O)cc2)cc(-c2cc(F)ccc2S(C)(=O)=O)n1 [Example 76, 1-(4-(6-(5-fluoro-2-(methylsulfonyl)phenyl)-2-((S)-3-methylmorpholino)pyrimidin-4-yl)phenyl)-3-((1S,2S)-2-hydroxycyclopentyl)urea]
> 10 µM: all assays above
